“Also recorded” adds a separate entry of the source.
System: U937-pyrin cells
Test: Cell viability (resazurin) of U937-pyrin cells, pyroptosis
Assay type: cell-based, human
Conditions: BAA473 activation, resazurin assay
Description: Cell viability of PBMCs and U937 cells was checked with PrestoBlue HS Cell Viability Reagent (Invitrogen # P50200) according to the manufacturer’s instructions. After incubation for 1 to 2 h, fluorescence was determined with a PheraStar plate reader under Ex/Em = 540/590 nm.
Supplementary file mmc1.pdf: Supporting Figure S1 BMDM cells were primed by LPS (1 μg/ml) for 4 hrs and then challenged with 20 μM nigericin. 50 μl supernatant was collected every 15 min (up to 90 min) and mIL-1β level was determined by HTRF assay. […] Supporting Figure S2: A, immunoblot of HDAC1, HDAC2 and HDAC6 protein level in WT THP-1 cells vs DMSO or dTAG treated F10-FKBP^F36V THP-1 cells. DARPin F10 was detected by anti-HA antibody. B, FKBP^F36V THP-1 cells were established for evaluating the possible effect of dTAG on IL-1β release. Cells were first treated with PMA (0.5 μM) for 3 hr, then medium was changed and vehicle or dTAG was added (1 μM), followed by 20 μM nigericin for 3 hr. Supporting Figure S3: A, CTG cell viability assay to analyze degrader XY-07-035 toxicity in HEK293T, Jurkat and U937 cells. Cells were treated with different concentrations of the degrader, and cell viability determined by CTG assay was normalized to the non-treated group. […] Supporting Figure S4: Cell viability was measured by resazurin assay, and fluorescence intensity was a representative of the viability.

Structure (SMILES) | cell viability / protection from pyroptosis
CN(C(=O)CCCNc1cccc2c1C(=O)N(C1CCC(=O)NC1=O)C2=O)c1ccc(NC(=O)CCCCCCC(=O)NO)cc1 (centres unmarked) [XY-07-35] | did not protect cells from pyroptosis; also recorded: No significant difference
CN1C(=O)CCC(N2C(=O)c3cccc(NCCCC(=O)N(C)c4ccc(NC(=O)CCCCCCC(=O)NO)cc4)c3C2=O)C1=O (centres unmarked) [XY-07-191] | No significant difference

From publication PMC10850954, “HDAC6/aggresome processing pathway importance for inflammasome formation is context-dependent” (The Journal of Biological Chemistry, 2024)
